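96-well plates; 48 h exposure; 5 concentrations. Endpoints by linear interpolation between flanking doses. Not reached: highest tested concentration assigned. GI50 = concentration required for 50% inhibition of growth.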 Activity calls are given as the source filed them. No stated cut-off is given here; in the data, active = GI50 up to about 1.1 µM and inactive = higher.
Key:
Assay in all cases: inhibition of tumour cell growth, NCI panel, 48 h
M19-MEL = tested on: M19-MEL
A549 = tested on: A549
TK-10 = tested on: TK-10
UO-31 = tested on: UO-31
UACC-257 = tested on: UACC-257
A498 = tested on: A498
EKVX = tested on: EKVX
SF-539 = tested on: SF-539
CAKI-1 = tested on: CAKI-1
DMS-273 = tested on: DMS-273
MOLT-4 = tested on: MOLT-4
SNB-75 = tested on: SNB-75
RPMI-8226 = tested on: RPMI-8226
SK-OV-3 = tested on: SK-OV-3
OVCAR-4 = tested on: OVCAR-4
HCT-116 = tested on: HCT-116
IGROV-1 = tested on: IGROV-1
HL-60 = tested on: HL-60
HT-29 = tested on: HT-29
DLD-1 = tested on: DLD-1
SK-MEL-2 = tested on: SK-MEL-2
SW-620 = tested on: SW-620
LOX IMVI = tested on: LOX IMVI
K562 = tested on: K562
KM-20L2 = tested on: KM-20L2
SK-MEL-5 = tested on: SK-MEL-5
HCT-15 = tested on: HCT-15
LXFL 529 = tested on: LXFL 529
HOP-92 = tested on: HOP-92
SNB-19 = tested on: SNB-19
OVCAR-8 = tested on: OVCAR-8
SNB-78 = tested on: SNB-78
ACHN = tested on: ACHN
XF498 = tested on: XF498
UACC-62 = tested on: UACC-62
SN12C = tested on: SN12C
SF-295 = tested on: SF-295
HOP-62 = tested on: HOP-62
DMS-114 = tested on: DMS-114
HCC 2998 = tested on: HCC 2998
SF-268 = tested on: SF-268
NCI-H23 = tested on: NCI-H23
M14 = tested on: M14
SK-MEL-28 = tested on: SK-MEL-28
SR = tested on: SR
OVCAR-5 = tested on: OVCAR-5
KM12 = tested on: KM12
U-251 = tested on: U-251
CCRF-CEM = tested on: CCRF-CEM
NCI-H522 = tested on: NCI-H522
COLO 205 = tested on: COLO 205
NCI-H460 = tested on: NCI-H460
786-0 = tested on: 786-0
OVCAR-3 = tested on: OVCAR-3
Malme-3M = tested on: Malme-3M
NCI-H226 = tested on: NCI-H226
RXF 393 = tested on: RXF 393
HOP-18 = tested on: HOP-18

Measured: GI50

O=C(Nc1nc2ccc([N+](=O)[O-])cc2s1)C(=O)C(C(=O)c1ccccc1F)C1OC(=O)c2ccccc21 (configuration not stated)
inactive: M19-MEL 31 µM | A549 57 µM | TK-10 87.1 µM | UO-31 38 µM | UACC-257 92.5 µM | A498 42.8 µM | EKVX 22.1 µM | SF-539 21.3 µM | CAKI-1 41.4 µM | DMS-273 33.7 µM | MOLT-4 17.7 µM | SNB-75 30.9 µM | RPMI-8226 16.4 µM | SK-OV-3 29 µM | OVCAR-4 46.8 µM | HCT-116 37.1 µM | IGROV-1 75.5 µM | HL-60 20.3 µM | HT-29 40 µM | DLD-1 41 µM | SK-MEL-2 20.4 µM | SW-620 41.3 µM | LOX IMVI 27 µM | K562 29.9 µM | KM-20L2 49.4 µM | SK-MEL-5 71.9 µM | LXFL 529 34 µM | HOP-92 > 100 µM | SNB-19 28.6 µM | OVCAR-8 47.9 µM | SNB-78 25.1 µM | ACHN 59.4 µM | XF498 48.3 µM | UACC-62 29.6 µM | SN12C 40.5 µM | SF-295 56 µM | HOP-62 62.2 µM | DMS-114 25.1 µM | HCC 2998 24.9 µM | SF-268 34.2 µM | NCI-H23 67.1 µM | M14 56.2 µM | SK-MEL-28 32.1 µM | SR 16.8 µM | OVCAR-5 71 µM | KM12 55.1 µM | U-251 16.9 µM | CCRF-CEM 17.3 µM | NCI-H522 17.4 µM | COLO 205 21.3 µM | NCI-H460 40.5 µM
31.2 µM: HCT-15

COc1ccc(CC(=O)c2cc(OC)c(OC)cc2C)cc1OC
46.5 µM: HCT-15
inactive: M19-MEL 37.6 µM | A549 71.6 µM | TK-10 > 100 µM | UO-31 18.2 µM | UACC-257 21.3 µM | A498 > 100 µM | EKVX 63 µM | CAKI-1 > 100 µM | 786-0 > 100 µM | MOLT-4 44.8 µM | SNB-75 > 100 µM | RPMI-8226 65.3 µM | SK-OV-3 > 100 µM | OVCAR-4 29.3 µM | OVCAR-3 77.6 µM | IGROV-1 14 µM | HT-29 > 100 µM | DLD-1 > 100 µM | SK-MEL-2 > 100 µM | SW-620 > 100 µM | K562 57.5 µM | KM-20L2 > 100 µM | SK-MEL-5 24.9 µM | LXFL 529 24.8 µM | SNB-19 68.4 µM | OVCAR-8 > 100 µM | SNB-78 > 100 µM | ACHN 29.4 µM | XF498 25.5 µM | UACC-62 38 µM | SN12C 55.1 µM | SF-295 57.4 µM | HOP-62 > 100 µM | DMS-114 14.7 µM | HCC 2998 > 100 µM | SF-268 89.3 µM | NCI-H23 20.5 µM | M14 > 100 µM | SK-MEL-28 81.3 µM | OVCAR-5 > 100 µM | KM12 > 100 µM | U-251 > 100 µM | CCRF-CEM > 100 µM | NCI-H522 38 µM | COLO 205 > 100 µM | Malme-3M > 100 µM | NCI-H460 > 100 µM

Cc1[nH]c2cc([N+](=O)[O-])ccc2c1[N+](=O)[O-]
inactive: A549 17.1 µM | TK-10 29.7 µM | UO-31 7.96 µM | NCI-H226 14.2 µM | UACC-257 17 µM | A498 17.3 µM | EKVX 11.7 µM | SF-539 18.8 µM | CAKI-1 19 µM | 786-0 29 µM | MOLT-4 19.5 µM | SNB-75 19 µM | RPMI-8226 10.5 µM | OVCAR-4 14.1 µM | OVCAR-3 25.1 µM | IGROV-1 26.2 µM | HL-60 20.6 µM | HT-29 27.9 µM | DLD-1 22.6 µM | SK-MEL-2 14.1 µM | SW-620 25.2 µM | LOX IMVI 24.6 µM | K562 22.2 µM | KM-20L2 27.4 µM | SK-MEL-5 14 µM | LXFL 529 17.2 µM | HOP-92 3.9 µM | SNB-19 18.7 µM | OVCAR-8 25.8 µM | ACHN 15.5 µM | XF498 20.7 µM | SN12C 25.6 µM | SF-295 17.3 µM | HOP-62 7.28 µM | DMS-114 9.93 µM | HCC 2998 15 µM | SF-268 22.1 µM | NCI-H23 17.7 µM | M14 19.5 µM | SK-MEL-28 21 µM | OVCAR-5 27.2 µM | KM12 21.3 µM | U-251 19.9 µM | CCRF-CEM 16.8 µM | NCI-H522 13.3 µM | COLO 205 13.7 µM | RXF 393 13.6 µM | Malme-3M 13.9 µM | NCI-H460 20.6 µM

Cc1ccc(C)c(N2C(=O)C(=O)C(c3nc4ccccc4s3)C(=O)C2=O)c1
> 100 µM: HCT-15
inactive: M19-MEL > 100 µM | A549 > 100 µM | TK-10 > 100 µM | UO-31 > 100 µM | NCI-H226 > 100 µM | UACC-257 > 100 µM | A498 > 100 µM | EKVX > 100 µM | SF-539 > 100 µM | CAKI-1 > 100 µM | 786-0 > 100 µM | DMS-273 > 100 µM | MOLT-4 > 100 µM | SNB-75 > 100 µM | RPMI-8226 > 100 µM | SK-OV-3 > 100 µM | OVCAR-4 > 100 µM | OVCAR-3 > 100 µM | HCT-116 > 100 µM | IGROV-1 > 100 µM | HL-60 > 100 µM | HT-29 > 100 µM | DLD-1 > 100 µM | SK-MEL-2 > 100 µM | SW-620 > 100 µM | LOX IMVI > 100 µM | K562 > 100 µM | KM-20L2 > 100 µM | SK-MEL-5 > 100 µM | LXFL 529 > 100 µM | HOP-92 > 100 µM | SNB-19 > 100 µM | OVCAR-8 > 100 µM | SNB-78 > 100 µM | ACHN > 100 µM | UACC-62 > 100 µM | SN12C > 100 µM | SF-295 > 100 µM | HOP-62 > 100 µM | DMS-114 > 100 µM | HCC 2998 > 100 µM | SF-268 > 100 µM | NCI-H23 > 100 µM | M14 > 100 µM | SK-MEL-28 > 100 µM | OVCAR-5 71.8 µM | KM12 > 100 µM | U-251 83.8 µM | CCRF-CEM > 100 µM | NCI-H522 > 100 µM | COLO 205 > 100 µM | RXF 393 > 100 µM | Malme-3M > 100 µM | NCI-H460 > 100 µM

COc1cc(C2c3cc4c(cc3[C@@H](NCCN3CCOCC3)C3COC(=O)[C@H]23)OCO4)cc(OC)c1O (some centres not stated)
inactive: TK-10 7.85 µM | UO-31 1.77 µM | UACC-257 3.23 µM | EKVX 14.2 µM | CAKI-1 1.97 µM | 786-0 1.19 µM | OVCAR-4 17.8 µM | OVCAR-3 8.02 µM | HCT-116 3.01 µM | IGROV-1 8.11 µM | HT-29 4.65 µM | DLD-1 6.18 µM | SK-MEL-2 4.17 µM | SW-620 1.23 µM | K562 5.56 µM | KM-20L2 2.96 µM | HOP-18 2.81 µM | LXFL 529 11.3 µM | SNB-19 2.51 µM | OVCAR-8 2.18 µM | SNB-78 16.5 µM | UACC-62 1.21 µM | SF-295 1.35 µM | HCC 2998 1.97 µM | SF-268 1.56 µM | M14 2.57 µM | SK-MEL-28 3.71 µM | KM12 2.42 µM | NCI-H522 2.51 µM | RXF 393 2.3 µM | Malme-3M 2.31 µM
active: SF-539 0.836 µM | DMS-273 0.437 µM | LOX IMVI 0.962 µM | HOP-92 1.04 µM | HOP-62 0.541 µM | U-251 0.906 µM
1.65 µM: HCT-15

Source: ChEMBL document CHEMBL1201862, “PubChem BioAssay data set” (2004)
